Measured values as given in patent publication US20230138327A1, “COMPOSITIONS AND METHODS CONTAINING REDUCED NICOTINAMIDE RIBOSIDE FOR PREVENTION AND TREATMENT OF PANCREATIC DISEASES AND CONDITIONS” (SOCIETE DES PRODUITS NESTLE S.A., priority 2020, published 2023).
“Also recorded” adds a separate entry of the source.

Tests used:
AML12 hepatocytes = test: Intracellular NAD+ levels in AML12 hepatocytes treated with NRH or NR; type: cell-based
Procedure: Even at such relatively low dose, NRH achieved similar increases in intracellular NAD+ levels to those reached with NR at 50-fold higher concentrations.
NRH actions were also extremely fast (FIG. 3), as significant increases in NAD+ levels were observed within 5 minutes after NRH treatment.

INS1-cells = test: NAD+ levels in INS1-cells after NRH treatment; type: cell-based
3T3 fibroblasts = test: NAD+ levels in 3T3 fibroblasts after NRH treatment; type: cell-based
AML12 cells = test: Pathway of NRH-induced NAD+ synthesis: intracellular metabolites and pathway inhibitors; type: cell-based
Procedure: FIG. 4. NRH leads to NAD+ biosynthesis through an adenosine kinase dependent path. AML12 cells were treated with an adenosine kinase inhibitor (5-IT; […]) for 1 hour prior to NRH treatment at the doses indicated. Then, 1 hour later, acidic extracts were obtained to measure NAD levels. All values in the figure are expressed as mean+/−SEM of 3 independent experiments. * indicates statistical difference at p<0.05 vs. the respective vehicle treated group.
(§1) Levels of NRH and other NAD-related metabolites in biological samples were obtained by using a cold liquid-liquid extraction using a mixture of methanol:water:chloroform in 5:3:5 (v/v), from which the polar phase was recovered for hydrophilic interaction ultra-high performance liquid chromatography mass spectrometry (UHPLC-MS) analysis. The UHPLC consisted of a binary pump, a cooled autosampler, and a column oven (DIONEX Ultimate 3000 UHPLC+ Focused, Thermo Scientific), connected to a triple quadrupole spectrometer (TSQ Vantage, Thermo Scientific) equipped with a heated electrospray ionisation (H-ESI) source. Of each sample, 2 μL were injected into the analytical column (2.1 mm×150 mm, 5 μm pore size, 200 Å HILICON iHILIC®-Fusion(P)), guarded by a pre-column (2.1 mm×20 mm, 200 Å HILICON iHILIC®-Fusion(P) Guard Kit) operating at 35° C. The mobile phase (10 mM ammonium acetate at pH 9, A, and acetonitrile, B) was pumped at 0.25 mL/min flow rate over a linear gradient of decreasing organic solvent (0.5-16 min, 90-25% B), followed by re-equilibration for a total run time of 30 min. The MS operated in positive mode at 3500 V with multiple reaction monitoring (MRM). The software Xcalibur v4.1.31.9 (Thermo Scientific) was used for instrument control, data acquisition and processing. Retention time and mass detection was confirmed by authentic standards.
A path in which NRH would be converted to NMNH, then to NADH and this would be finally oxidized to NAD+.
In order to understand the exact path by which NRH synthesizes NAD+, we initially evaluated whether NRH, could be transported into the cell by equilibrative nucleoside transporters (ENTs).
The action of NRH was also NAMPT-independent, based on experiments using FK866, a NAMPT inhibitor. If NRH led to NAD+ synthesis via the formation of NMNH, this hypothetical path would require the phosphorylation of NRH into NMNH. Given the essential and rate-limiting role of NRK1 in NR phosphorylation, we wondered whether the ability of NRH to boost NAD+ levels was NRK1 dependent. To answer this question, we evaluated NRH action in primary hepatocytes from either control or NRK1 knockout (NRK1KO) mice. […] Further, they rule out the possibility that NRH-induced NAD+ […] is driven by NRH oxidation into NR.
Considering the molecular structure of NRH, we reasoned that an alternative nucleoside kinase could be responsible for the phosphorylation of NRH. […] The role of AK in NRH-mediated NAD+ synthesis was confirmed using a second, structurally different, AK inhibitor, ABT-702. Metabolomic analyses further confirmed that upon inhibition of AK, the generation of NMNH, NADH and NAD+ was fully blunted, even if NRH was effectively entering the cell.
As a follow-up step, NMNAT enzymes could catalyze the transition from NMNH to NADH. […] Yet, part of the NRH action remained after gallotannin treatment when NRH was used at maximal doses.

[1] = Stability of NRH or NR spiked in isolated mouse plasma; type: in vitro ADME
From the text: as §1

Stability in water = type: physicochemical; details: pH=7, at room temperature
Procedure: NR degradation to NAM has been proposed as a limitation for its pharmacological efficacy. To evaluate whether NRH was also susceptible to degradation to NAM, we spiked NRH or NR in isolated mouse plasma. […] We also tested the stability of NRH in other matrixes. […] Finally, we also certified NRH stability in water (pH=7, at room temperature) for 48 h.

mice = test: Pancreas NAD+ levels in mice after intraperitoneal administration; type: in vivo; details: I.P. 500 mg/kg, after 1 hour
Procedure: 8 week-old C57BI/6NTac mice were intraperitoneally administered with either saline (as vehicle) or NRH (500 mg/kg). After 1 hour, pancreas NAD+ was measured using commercial kits. All results are expressed as mean+/−SEM of n=4 mice per group, corrected by weight of tissue.

INS-1E cells = test: Lipotoxicity (palmitic acid)-induced pancreatic β-cell death, cell viability; type: cell-based; details: palmitic acid 0.4 mM, 24 hours, NRH 0.1 mM
Procedure: INS-1E cells were treated with BSA-conjugated palmitic acid (0.4 mM) for 24 hrs in the presence or absence of NRH (0.1 mM). PBS was used as vehicle for NRH, while fatty-acid free BSA was used as control for palmited treatment. After 24 hrs, cell viability was evaluated by luminescence using a commercial kit (Cell Title-Glow; Promega). All results are expressed as mean+/−SEM of n=8 experiments. * indicates P<0.05 vs. the respective vehicle treated group.
INS-1E cells were treated with BSA-conjugated palmitic acid (0.4 mM) for 24 hours in the presence or absence of NRH (0.1 mM). PBS was used as vehicle for NRH, while fatty-acid free BSA was used as control for palmited treatment. After 24 hours, cell viability was evaluated by luminescence using a commercial kit (Cell Title-Glow; Promega).

SMILES: NC(=O)C1=CN([C@@H]2O[C@H](CO)[C@@H](O)[C@H]2O)C=CC1 [NRH]
- Ability to increase intracellular NAD+ compared with NR (AML12 hepatocytes; AML12 hepatocytes): superior to that of NR
- Concentration range of maximal effects on NAD+ synthesis (AML12 hepatocytes; AML12 hepatocytes): around the millimolar range
- Time after treatment at which significant increases in NAD+ levels were observed (AML12 hepatocytes; AML12 hepatocytes (FIG. 3)): ≤ 5 min
- Fold higher NR concentration needed for similar increase in intracellular NAD+ as NRH at 10 μM (AML12 hepatocytes; AML12 hepatocytes, NRH 10 μM vs NR): 50 fold
- Increase of intracellular NAD+ levels at maximal effect (AML12 hepatocytes; AML12 hepatocytes, around the millimolar range): more than 10 fold
- Concentration at which NAD+ levels are significantly increased (AML12 hepatocytes; AML12 hepatocytes, dose-response (FIG. 2)): 10 µM
- NAD+ levels (INS1-cells): highly elevated
- NAD+ levels (3T3 fibroblasts): highly elevated
- Intracellular detection of NRH and NMNH (AML12 cells; 5 minutes after treatment): could be detected
- Increase in intracellular NR and NMN (AML12 cells; after NRH treatment, vs NR treatment): greater than that triggered by NR itself
- Capacity as extracellular NAD+ precursor under ENT blockage (AML12 cells; in the presence of S-(4-nitrobenzyl)-6-thioinosine (NBTI)): largely lost its capacity
- Generation of NMNH, NADH and NAD+ from NRH upon inhibition of AK (AML12 cells; metabolomic analyses): fully blunted
- Dependence of NAD+ increase on NAMPT (AML12 cells; with FK866, a NAMPT inhibitor): NAMPT-independent
- Compound levels in isolated mouse plasma ([1]; 2 h of incubation): remained stable
- Generation of NAM in isolated mouse plasma ([1]; 2 h of incubation): not generated; also recorded: did not significantly alter NAM levels
- NR production in isolated plasma ([1]; NRH incubation in isolated plasma): did not lead to NR production
- Stability in water, duration (Stability in water): 48 h
- NAD+ levels in the pancreas (mice): efficiently increases NAD+ levels
- Cell viability under BSA-conjugated palmitic acid (INS-1E cells): protects against lipotoxicity-induced pancreatic β-cell death
